Assays:
[1] = system: Runx2 mRNA; experiment: Runx2 mRNA levels (RT-qPCR) after CGP57380; assay type: cell-based, human; details: treated vs untreated cells
Protocol: Quantitative Real-Time PCR (RT-qPCR) and Analysis: RNA was extracted using Trizol as per the manufacturer's instructions. One microgram of RNA was used for reverse transcription reaction using Promega GoScript, as per the manufacturer's instructions. qRT-PCR was completed using iTaq Universal 2× SYBR Green qPCR master mix (Bio-Rad) and an Applied Biosystems 7500 Fast RT-PCR machine as per the manufacturers' instructions. Fold change was calculated using the 2^−ΔΔCt method.
The biological functions of mRNAs identified as highly eIF4E-dependent in tamoxifen-resistant cells were next assessed. Of these, Runx2 was particularly notable because it encodes a protein with a number of activities that could play a role in tamoxifen resistance, as it is an important inhibitor of estrogen signaling and stimulates oncogenic pathways. […] It was also determined whether Runx2 mRNA requires eIF4E S209 phosphorylation by Mnk1. Cells were untreated or treated with CGP57380, and Runx2 mRNA and protein levels were determined.

[2] = system: p38, JNK1, and RSKs; details: at 10 μM; cited from earlier work
[3] = system: eIF4E phosphorylation (MNK1); experiment: Immunoblot of eIF4E phosphorylation, CGP57380 dose escalation in TamS and TamR cells; assay type: cell-based, human; details: escalating doses, 2 hours
Protocol: Endogenous eIF4E was silenced by shRNA. Cell proliferation was assayed by MTT assay with cells treated with DMSO vehicle or 1 μM 4-OHT. Results are from three independent experiments. […] Endogenous eIF4E was silenced by shRNA. Cell proliferation was assayed by MTT assay using conditions described above for FIG. 4. Results from three independent experiments are shown. FIG. 6C is an immunoblot of TamS and TamR cells treated with escalating doses of CGP57380 (GCP) for 2 hours and lysed in NP-40 buffer; equal protein amounts were probed for P-eIF4E, total eIF4E, and β-actin (loading control). […] Cells were treated with DMSO, 1 μM 4-OHT, or 4-OHT and MNK1 inhibitor CGP. […]
Immunoblot Studies: In brief, cells were lysed in NP-40 buffer (50 mM HEPES, pH 7.0, 150 mM NaCl, 2 mM EDTA, 25 mM NaF, 25 mM β-glycerophosphate, 2 mM Na3VO4, 1% IGEPAL, and Complete Mini protease inhibitor cocktail tablet+/−EDTA; Roche) or RIPA lysis buffer (1% Triton X-100, 1% sodium deoxycholate, 0.1% SDS, 150 mM NaCl, 50 mM Tris, pH 7.4, 2 mM Na3VO4, 25 mM β-glycerophosphate, 15 mM NaF, and complete protease inhibitor mix; Roche) and lysate cleared by centrifugation at 13,000 rpm for 10 minutes at 4° C. Lysate protein concentration was determined for each sample using BCA assay. […] Quantitation was performed by determination of the integrated density of the bands using ImageJ software. […]

Nc1ncnc2n[nH]c(Nc3ccc(F)cc3)c12 [CGP57380]
Runx2 mRNA levels [1]: no statistically significant difference | inhibitory activity on other families of related kinases (p38, JNK1, and RSKs) [2]: no inhibitory activity | concentration for complete inhibition of eIF4E phosphorylation [3]: 10 µM
